Read-outs that look alike come from different tables or passages of the source.
What was measured:
recombinant human UCK2 = target: T1, recombinant human UCK2 (Homo sapiens, UniProt Q9BZX2); assay: In vitro enzyme activity assay with recombinant human UCK2 (PK/LDH-coupled, UV 340 nm); assay type: biochemical; details: for UCK2 substrate or not (ATP consumption): 250 μM analog in the presence of 50 μM uridine
T1 construct: 6xHis (C); made in house; host or cells: E. coli BL21(DE3)
T1 sequence (Q9BZX2 1-261): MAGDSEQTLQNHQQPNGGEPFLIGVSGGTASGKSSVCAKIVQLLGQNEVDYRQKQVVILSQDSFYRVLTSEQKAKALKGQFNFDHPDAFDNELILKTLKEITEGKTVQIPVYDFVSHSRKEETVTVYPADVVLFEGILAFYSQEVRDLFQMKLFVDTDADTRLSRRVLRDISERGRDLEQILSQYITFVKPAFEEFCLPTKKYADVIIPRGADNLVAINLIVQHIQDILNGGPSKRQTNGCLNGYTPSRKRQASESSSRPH
From the text: (§1) In order to guide our SAR studies, we developed an enzymatic assay to evaluate the inhibitory effect of each CPU analog against recombinant human UCK2, which was expressed and purified in E. coli. A continuous assay system was optimized by coupling UCK2 activity to the pyruvate kinase (PK) reaction, which in turn was coupled to lactate dehydrogenase (LDH). Overall reaction progress was continuously monitored by detecting the UV absorption change at 340 nm, which was correlated with the ATP consumption by UCK2. The effect of 250 μM of each CPU analog on UCK2 activity was evaluated in the presence of 50 μM uridine. […] We then individually measured the steady state kinetic parameters of UCK2 using uridine, CPU and 5-F-CPU as substrates. Their KM values were 86, 25, and 41 μM, and their kcat/KM values were 2.6×10^5, 1.5×10^5, and 7.3×10^4 s^−1 M^−1 (FIG. 5B).
(§2) Cloning, expression and purification of recombinant human UCK2 and CMPK1: Uridine cytidine kinase 2 (UCK2) was cloned into the pET-21a(+) vector using Ndel and Notl as restriction sites. […] The resulting plasmid was transformed into E. coli BL21(DE3) cells by electroporation, recovered in SOC at 37° C. for 1 h and plated onto LB agar plates with kanamycin overnight at 37° C. A single, isolated colony was inoculated into 30 mL LB supplemented with 50 μg/mL kanamycin and grown at 37° C. with shaking for 15 h. The next day, these cells were used to inoculate 1 L autoclaved LB with 50 μg/mL kanamycin. The flask was shaken at 37° C. When an optical density (OD600) of 0.7 was reached, protein expression was induced with 0.5 mM isopropyl β-D-1-thiogalactopyranoside (IPTG). The temperature was changed to 18° C. and flasks were shaken for an additional 15 h. The cell pellets were collected by spinning the media at 5000 rpm for 10 min. The pellets obtained were frozen by liquid nitrogen and stored in −80° C. for protein purification. Cell pellets were thawed and resuspended in lysis buffer containing Tris (40 mM, pH 7.5), NaCl (10 mM), imidazole (10 mM), DTT (1 mM). Cells were lysed by sonication and centrifuged at 25,000 g for 1 h. The supernatant was incubated with a slurry of Ni-NTA resin for 1 h at 4° C. and loaded onto a column. The nickel column wash buffer was Tris (40 mM, pH 7.5), NaCl (10 mM), DTT (1 mM) and each wash step contained increasing concentrations of imidazole (10, 50, or 250 mM). After SDS-PAGE confirmation of the protein fractions, protein was further purified using fast protein liquid chromatography (FPLC) using buffer A (50 mM Tris-HCl pH 8, 1 mM dithiothreitol (DTT), 10% glycerol) and elution buffer B (50 mM Tris-HCl pH 8, 1mM dithiothreitol (DTT), 10% glycerol with 500 mM NaCl) with changing gradient over a 20 minute from 2% to 100% Buffer B. FPLC eluents containing the protein was concentrated using Am icon centrifugal filter with 3K cut-off and the enzyme was stored in storage buffer (50 mM Tris-HCl pH 7.5, 10% glycerol). Human cytidine monophosphate kinase 1 (CMPK1) was purified as previously described (Deans et al., 2016).
(§3) In vitro enzyme activity assays with recombinant human UCK2: To continuously monitor reaction progress spectrophotometrically, ATP hydrolysis was coupled to NADH oxidation via pyruvate kinase (PK) and lactate dehydrogenase (LDH). Reactions were conducted at room temperature in 100 μL in 96-well plates (Greiner Bio-One, UV-Star, Half Area). Mixtures contained 20 mM HEPES (pH 7.2), 100 mM KCl, 2 mM MgCl2, 300 μM ATP, 0-500 μM uridine, 0-500 μM CPU analogs, 10 nM UCK2, 1 mM phosphoenolpyruvate, 500 μM NADH and 20 units/mL of PK and LDH. Progress was monitored in the linear region using a Biotek Synergy HT and kinetic and inhibition constants were determined using GraphPad Prism 7 (GraphPad Software).

DENV-2 virus = assay: DENV antiviral assay, DENV-Luc replication in A549 cells (FIGS. 8 and 9); assay type: cell-based, dengue serotype 2 (DENV-2) strain 16681
Protocol: DENV-Luc reporter virus generation: The design of the pDENV-Luc infectious clone derived from dengue serotype 2 (DENV-2) strain 16681 was described in detail by Marceau et al (Marceau et al., 2016). The plasmid was linearized with Xbal and in vitro transcribed into the genomic RNA of DENV-Luc virus using the T7 Megascript Kit (Ambion) in the presence of m7G(5′)ppp(5′)G RNA Cap Structure Analog (NEB). 5 μg DENV-Luc RNA was electroporated into 2×10^6 Vero cells. The transfected cells were resuspended with Dulbecco's modified Eagle's medium (DMEM; Invitrogen) with 10% FBS and 100 U/ml penicillin-streptomycin and transferred into a T-175 flask incubated at 37° C. with 5% CO2. Supernatants were collected and replenished with fresh medium every 24 h from day 17 to 24 post-transfection, pooled together, clarified by centrifugation and stored in aliquots at −80° C. The amount of infectious DENV-Luc virus in the stock was titrated using the TCID50 assay and calculated by the Spearman & Kärber algorithm as described previously (Hierholzer and Killington, 1996).
DENV antiviral assays (For FIGS. 8 and 9): A549 cells were plated overnight at 5,000 cells/well in 96-well plates in complete DMEM and incubated for 24 h at 37° C. Cells were then treated with pyrimidine de novo synthesis inhibitors, and/or salvage inhibitors, and/or R1479 in DMEM supplemented with 20 μM uridine. Four hours after drug addition, cells were infected with DENV-2 virus at a MOI=0.1. After 72 h, DENV-Luc replication was monitored by the production of Renilla luciferase, which was measured using the Renilla-Glo Luciferase Assay System (Promega) according to the specifications of the manufacturer. For the accompanying cell viability assay, A549 cells were seeded at 5,000 cells/well in 96-well plates in complete DMEM and incubated for 24 h at 37° C. Cell were then treated with pyrimidine de novo synthesis inhibitors, and/or salvage inhibitors, and/or R1479 in DMEM supplemented with 20 μM uridine. Following 48 h treatment, cell viability was monitored by ATP levels, which was measured using the CellTiter-Glo Luciferase Assay System (Promega) according to the specifications of the manufacturer.

[1] = substrate: O=c1ccn([C@@H]2C=C(CO)[C@@H](O)[C@H]2O)c(=O)[nH]1; assay: In vitro enzyme activity assay with recombinant human UCK2 (PK/LDH-coupled, UV 340 nm); assay type: biochemical; details: other: steady state kinetic parameters of UCK2 with the compound as substrate
From the text: as §1, §2, §3

[2] = substrate: O=c1[nH]c(=O)n([C@@H]2C=C(CO)[C@@H](O)[C@H]2O)cc1F; assay: as above; assay type: biochemical; details: other: steady state kinetic parameters of UCK2 with the compound as substrate
From the text: as §1, §2, §3

[3] = substrate: O=c1ccn([C@@H]2O[C@H](CO)[C@@H](O)[C@H]2O)c(=O)[nH]1; assay: as above; assay type: biochemical; details: other: steady state kinetic parameters of UCK2 with the compound as substrate
From the text: as §1, §2, §3

## O=c1[nH]c(=O)n([C@@H]2C=C(CO)[C@@H](O)[C@H]2O)cc1F [5-F-CPU, 1-((1R,4R,5S)-4,5-dihydroxy-3-(hydroxymethyl)cyclopent-2-en-1-yl)-5-fluoropyrimidine-2,4(1H,3H)-dione]
Recombinant human UCK2
  UCK2 substrate or not (ATP consumption): substrates of UCK2
Recombinant human UCK2; added to assay mixture containing UCK2, uridine (50 μM) and ATP
  rate of UMP synthesis: dose-dependent decrease

## [N-]=[N+]=N[C@]1(CO)O[C@@H](n2ccc(N)nc2=O)[C@H](O)[C@@H]1O [R1479, 4′-azidocytidine]
DENV-2 virus; 1 μM GSK983 added, no CPU, 20 μM uridine
  influence of GSK983 alone on the antiviral activity of R1479: negligible influence
DENV-2 virus; Dengue virus, DENV2, A549, 20 μM uridine, without GSK983 and CPU, read-out: EC50, inhibition of dengue virus replication, R1479 as single agent
  EC50: ~35 µM
DENV-2 virus; Dengue virus, DENV2, A549, in the presence of 250 μM CPU and 1 μM GSK983, 20 μM uridine, read-out: EC50 of R1479 in combination
  EC50: ≤ 8 µM
DENV-2 virus; in the presence of 250 μM CPU and 1 μM GSK983, 20 μM uridine, read-out: EC50 of R1479 in combination
  EC50: ~8 µM

## CC1=C[C@@H](n2ccc(=O)[nH]c2=O)[C@H](O)[C@@H]1O [5′-deoxy-CPU, 1-((1R,4R,5S)-4,5-dihydroxy-3-methylcyclopent-2-en-1-yl)pyrimidine-2,4(1H,3H)-dione]
Recombinant human UCK2
  UCK2 substrate or not (ATP consumption): inhibitors but not substrates
Recombinant human UCK2; competitive inhibitors of UCK2, Lineweaver-Burk analysis
  Ki: 230 µM

B1: recombinant human UCK2 (Homo sapiens) (protein)
chain: T1 sequence (Q9BZX2 1-261)
notes: 6xHis (C); made in house; host or cells: E. coli BL21(DE3)
[1]
  Km: 25 µM
  kcat/Km: 150000 M⁻¹ s⁻¹
[2]
  Km: 41 µM
  kcat/Km: 73000 M⁻¹ s⁻¹
[3]
  Km: 86 µM
  kcat/Km: 260000 M⁻¹ s⁻¹
